Patent EP0420914B1, “COSMETIC AND SKIN TREATMENT COMPOSITIONS” (PROCYTE CORPORATION, priority 1988, dated 1994)

Legend:
pig skin = experiment: Collagen content and angiogenic activity of pig skin biopsies after topical cream; assay type: in vivo
Protocol: In a typical experiment, a young pig was treated topically with a cream containing glycyl-(3-methyl)-L-histidyl-L-lysine:copper(II) or a placebo cream once a day for 12 days. Punch biopsies (6 mm dia.) were taken on day 0 and day 12. The biopsies were analyzed for total wet weight, alkaline phosphatase, total protein, and hydroxyproline content. Alkaline phosphatase is an enzyme marker for capillary endothelial cells and is an indicator of new angiogenesis. The hydroxyproline is a component of collagen, and increased hydroxyproline content indicates increased collagen content. The punch biopsies were prepared for biochemical analysis, basically by the method of Counts et al. (D. Counts, P. Knighten and G. Hegreberg, J. Invest. Derm. 69:521-26, 1977).
In a first experiment, an increase in alkaline phosphatase activity and hydroxyproline content was detected on day 12 in the biopsies taken from skin treated with glycyl-(3-methyl)-L-histidyl-L-lysine:copper(II) relative to the placebo-treated area.
The results obtained in a second experiment are graphically illustrated in Figure 4. In this experiment, biopsies were taken from the pig on days 0, 10 and 13 and analyzed for alkaline phosphatase activity.

[1] = system: dermis, epidermis and subcutis; experiment: Histological thickness of dermis, epidermis and subcutis in mice after topical creams; assay type: in vivo, Swiss-Webster female mice; details: creams on days 0, 1, 3, 4 and 5, placebo had returned to naive control level
Protocol: Skin from 31 Swiss-Webster female mice (average age - 18 months) was evaluated histologically for evidence of changes in skin architecture following several applications of placebo- and peptide-containing cream formulations. Measurements were made of dermal, epidermal and subcutis thickness using an eyepiece micrometer at 100X power.
The mice had hair removed by a close clipping, and were treated on days 0, 1, 3, 4 and 5 with either glycyl-L-histidyl-L-lysine:copper(II), or representative derivatives glycyl-(3-methyl)-L-histidyl-L-lysine: copper(II) and glycyl-L-histidyl-L-lysyl-L-valyl-L-phenylalanyl-L-valine: copper(II), or a placebo cream (n = 5/group). Biopsies were performed on individual animals from the groups on days 6, 10, 12 and 14. In addition, eleven naive mice were biopsied on day 0.

dermis = experiment: Ultrasound evaluation of dermal density after topical cream on the forearm; assay type: in vivo, human; details: 10 women; cream twice daily for three weeks, volar forearm; score 0 no change to 3 marked change; p = 0.029 versus placebo cream
Protocol: The effect of a representative composition, glycyl-(-3-methyl-L-histidyl-L-lysine:copper(II)(active agent), on the epidermis and dermis was evaluated by ultrasound. Ultrasound technique uses high-frequency sound, at 20 megahertz, to produce an echo signal of the skin. This signal is processed to produce a diagrammatic representation of the skin that is related to the structures of the skin by the strength of the reflected signal.
The topical cream containing glycyl-(3-methyl)-L-histidyl-L-lysine:copper(II) or a control cream was applied twice daily for three weeks to the volar surface of the forearms of 10 female subjects with an average age of 31.7 years, using both the right and left sides in a random fashion for each cream. Subjects were evaluated by ultrasound scans at days 1, 7, 14 and 21.
The dermal density after treatment as measured by ultrasound was evaluated on a scoring system whereby no change = 0, a slight change = 1, a moderate change = 2, and a marked change = 3. In 10 women treated with the cream-plus-active-agent, the average density score was 1.7, while the average score of the placebo-cream-only was 0.7. This difference was significant at a probability of p = 0.029.

human epidermis = experiment: Epidermal cell turnover rate by clearance of dansyl chloride; assay type: in vivo; details: seven female subjects; daily topical cream, upper inner arm; compared with the corresponding untreated site
Protocol: The rate of cell turnover is determined by the number of days for clearance of dansyl chloride from stained stratum. Seven female subjects were used in the study, with an average age of 50.4 (± 3.8) years. Each subject was treated with 3% dansyl chloride in petrolatum on four sites on the upper inner arms. One site on each arm served as an untreated control and the other site as the treated site. Sites were randomized by computer as to left or right and as to proximal or distal areas of the upper arm. Twenty-four hours after occlusion, the sites were uncovered and photographed under ultraviolet light for fluorescence of the dansyl chloride. This photograph was designated as day 1. Photographs were made over the next four weeks until all subjects had completed the study, as determined by the final disappearance of the dansyl dye. The sites were then treated daily with a topical cream containing a representative composition, glycyl-(3-methyl)-L-histidyl-L-lysine:copper(II) or a control cream. The number of days for the total disappearance of the dansyl dye from the cream-treated sites was compared with the corresponding untreated site.

subcutaneous fat layer = experiment: Formation of the subcutaneous fat layer after a single injection in mice (histology); assay type: in vivo; details: for subcutaneous fat layer at the area of injection: histology of the injected area
Protocol: A single dose of 50 micrograms of glycyl-L-histidyl-L-lysine n-octyl ester:Cu(II) was infiltrated under the skin in eight mice.
In another series of experiments, mice were injected once with glycyl-L-histidyl-L-lysine octyl ester:copper(II) at a dose of 500 micrograms per mouse.
This increase in subcutaneous fat is shown by taking a biopsy sample at day 21 through the area and sectioning for histology slides. […] The injected area is on the right with the adjacent uninjected area on the left of the photograph.
A group of ten mice were injected once with glycyl-L-histidyl-L-lysine decyl ester:copper(II) at a dose of 500 micrograms per mouse. Microscopic examination provided evidence of increased fat cell layer in the area surrounding the injection site.
A group of ten mice were injected once with glycyl-L-histidyl-L-lysine palmityl ester:copper(II) at a dose of 500 micrograms per mouse. Histological sections through the area of injection were similar to those described in Example VI.

skin = experiment: Topical ointment on human skin, single-subject case reports; assay type: in vivo; details: person
Protocol: A person had skin covered by a sprinkled pattern of fine reddish spots of microhemorrhages beneath an irritated skin surface.
A person had skin covered with a scaly eczema-like surface.
A person with hair loss and numerous pigmented spots ("aging spots") was treated for 14 days on the top of their head with an ointment (consisting of 94% Unibase and 6% dimethysulfoxide) containing 4 milligrams of GHL-Cu octyl per gram.
A person had irritated skin with numerous pimples.

[2] = topical cream once a day for 12 days, 6 mm punch biopsy, day 12
[3] = injected once, 500 micrograms per mouse

Question: For “glycyl-(3-methyl)-L-histidyl-L-lysine:copper(II)”, which “alkaline phosphatase activity, second experiment (Figure 4)” value (pig skin; biopsies on days 0, 10 and 13, relative to placebo cream-treated areas) is on record?
Answer: Its value is “increased alkaline phosphatase”.

Question: And the “Angiogenic Activity (as alkaline phosphatase)” value (pig skin; [2])?
Answer: The value was 0.013 ± 0.001 inc A405/min/mg.

Question: And the “Collagen Content (as hydroxyproline)” value (pig skin; [2])?
Answer: Its value is 5.8 ± 0.2 µg/biopsy.

Question: And the “epidermal thickness by day 14” value [1]?
Answer: Its value is “maintained an increased epidermal thickness”.

Question: And the “average density score (dermal density by ultrasound)” value (dermis)?
Answer: The value was 1.7.

Question: And the “increase of average skin turnover rate” value (human epidermis)?
Answer: The value was 30.0%.

Question: For “glycyl-L-histidyl-L-lysine decyl ester:copper(II)”, which “subcutaneous fat layer at the area of injection” value (subcutaneous fat layer; [3]) is on record?
Answer: The value was “marked increase in the subcutaneous fat layer”.

Question: With “glycyl-L-histidyl-L-lysine n-octyl ester:copper(II)” as the substance, how does the “number and size of the fat cells” value (subcutaneous fat layer; injected once, 500 micrograms per mouse, biopsy at day 21) read?
Answer: The value was “increase in both the number and size of the fat cells”.

Question: And the “increase in the subcutaneous fat layer in the skin near the injection site (fold)” value (subcutaneous fat layer; injected once, 500 micrograms per mouse, biopsy at day 21, versus adjacent uninjected area)?
Answer: Its value is “approximately threefold”.

Question: What about the “subcutaneous fat layer at the area of injection” value (subcutaneous fat layer; [3]) of the same substance?
Answer: The value was “significant increase in the thickness of the subcutaneous fat layer”.

Question: What about the “amounts of subcutaneous fat” value (subcutaneous fat layer; single dose of 50 micrograms infiltrated under the skin, eight mice) of the same substance?
Answer: Its value is “Increased amounts of subcutaneous fat were observed”.

Question: And the “softness and thickness of the skin covering the head” value (skin; treated 14 days on top of head)?
Answer: Its value is “noticeably softer to the touch and possessed a greater thickness”.

Question: And the “number of aging spots” value (skin; treated 14 days on top of head, 4 milligrams per gram in 94% Unibase and 6% dimethysulfoxide, thirty days after start)?
Answer: Its value is “marked reduction in the number of aging spots”.

Question: What about the “size of the remaining aging spots” value (skin; treated 14 days, thirty days after start) of the same substance?
Answer: The value was “reduction in the size of the remaining spots”.

Question: “glycyl-L-histidyl-L-lysine palmityl ester:copper(II)” was tested. Which “subcutaneous fat layer at the area of injection” value (subcutaneous fat layer; [3]) did it give?
Answer: Its value is “increase in the subcutaneous fat layer”.

Question: Which “reddish spots of microhemorrhages” value (skin; once daily for 9 days, 4 mg GHL-Cu per gram) does the source give for “glycyl-L-histidyl-L-lysine: copper(II) [GHL-Cu]” here?
Answer: The value was “complete clearing of the reddish spots”.

Question: How did the “epidermal thickness by day 14” value [1] turn out when “glycyl-L-histidyl-L-lysyl-L-valyl-L-phenylalanyl-L-valine: copper(II)” was run?
Answer: Its value is “maintained an increased epidermal thickness”.
